Experimental data as given in paper PMC10222209 (Pharmaceuticals, 2023).
Entries after “also recorded” stand apart in the source; their conditions may differ. Like-named read-outs stand apart in the source and are kept apart here.

Key:
[1] = tested on: 22RV1 cells; test: Antiproliferative assay (resazurin, 72 h) in 22RV1 cells; format: cell-based; conditions: for inhibition at 1 µM / IC50: Homo sapiens; for antiproliferative activity, in words: enzalutamide-resistant cell lines LNCaP95 and 22RV1, SAR statements
Procedure: (§1) 22Rv1 cells were obtained from ATCC. LNCaP95 cells were provided by Dr. Yan Dong’s laboratory (Tulane University School of Medicine). LNCaP95 cells were maintained in an RPMI1640 medium with charcoal-stripped serum (CSS). 22Rv1 cells were maintained in an RPMI1640 medium with 10% FBS. Cells were seeded in 96-well plates (5 × 10^3 cells/well) containing a 50 μL growth medium for 24 h. After medium removal, a 100 μL fresh medium containing individual compounds at different concentrations was added to each well and incubated at 37 °C for 72 h. Then, 20 μL of resazurin was added for 2 h before recording fluorescence at 560 nm (excitation) and 590 nm (emission) using a Victor microtiter plate fluorometer (Perkin-Elmer, Waltham, MA, USA).

[2] = tested on: LNCaP95 cells; test: Antiproliferative assay (resazurin, 72 h) in LNCaP95 cells; format: cell-based
Procedure: as §1

[3] = 22RV1, 1.0 μM, read-out: Inhibitory Rate 22RV1 @1.0 μM
[4] = antiproliferation, 22RV1, 72 h, mean of three independent experiments, read-out: IC50 (μM) 22RV1
[5] = observed, −log IC50, 22RV1 antiproliferation, read-out: Obs pIC50 (converted)
[6] = LNCaP-95, antiproliferation, LNCaP95, 72 h, mean of three independent experiments, read-out: IC50 (μM) LNCaP95

| Structure (SMILES) | inhibition at 1 µM [1, 3] | antiproliferative activity, in words [1] | IC50 [1, 4] | IC50 [1, 5] | IC50 [2, 6] | IC50 ([1]; 22Rv1, 72 h, read-out: IC50 (μM) 22RV1) | inhibition at 1 µM ([1]; 22Rv1, read-out: Inhibitory Rate 22RV1 @1.0 μM) | IC50 ([1]; 22Rv1, read-out: Obs pIC50 (converted)) | IC50 ([2]; LNCaP-95, 72 h, read-out: IC50 (μM) LNCaP95) | IC50 ([1]; 22Rv1, antiproliferation, approximate value, read-out: IC50 in 22RV1 (text)) | IC50 ([2]; LNCaP-95, antiproliferation, approximate value, read-out: IC50 in LNCaP95 (text)) |
| --- | --- | --- | --- | --- | --- | --- | --- | --- | --- | --- | --- |
| Nc1ccc(NC(=O)c2cc(Cl)ccc2O)c(Cl)c1 [B2] | 19.6% | complete loss of activity | – | – | – | – | – | – | – | – | – |
| O=C(Nc1ccc(C(F)(F)F)c(C(F)(F)F)c1)c1cccc(Cl)c1 [C1] | 53.1% | retained | 0.32 ± 0.115 µM | 0.32 µM | 0.299 µM | – | – | – | – | – | – |
| O=C(Nc1ccc([N+](=O)[O-])c(C(F)(F)F)c1)c1cccc(Cl)c1 [C3] | 43.7% | retained | 0.557 ± 0.127 µM | 0.557 µM | 0.33 ± 0.081 µM | – | – | – | – | – | – |
| N#Cc1ccc(NC(=O)c2cc(F)ccc2O)c(Cl)c1 [B12] | 44.3% | – | 3.23 ± 1.84 µM | 3.23 µM | > 10 µM | – | – | – | – | – | – |
| Cc1cc([N+](=O)[O-])ccc1NC(=O)c1ccc(Cl)cc1O [A2] | 47.1% | – | 0.676 ± 0.245 µM | 0.676 µM | 0.62 ± 0.311 µM | – | – | – | – | – | – |
| N#Cc1cc(C(F)(F)F)ccc1NC(=O)c1cc(F)ccc1O [B7] | 42.3% | – | 7.92 ± 2.56 µM | 7.93 µM | 4.38 ± 1.33 µM | – | – | – | – | – | – |
| O=C(Nc1ccc([N+](=O)[O-])cc1C(F)(F)F)c1cc(Cl)ccc1O [A11] | -8.3% | – | – | – | – | – | – | – | – | – | – |
| O=C(Nc1ccc([N+](=O)[O-])cc1Cl)c1cc(Cl)ccc1O [Niclosamide, reference compound] | 55.8% | – | 0.284 ± 0.059 µM | 0.284 µM | 0.372 ± 0.074 µM | – | – | – | – | – | – |
| O=C(Nc1ccc([N+](=O)[O-])c(C(F)(F)F)c1)c1ccc(Cl)cc1O [A6] | 54.4% | equivalent or improved anti-proliferation potency | 0.424 ± 0.12 µM | 0.424 µM | 0.214 ± 0.067 µM | – | – | – | – | – | – |
| O=C(Nc1ccc([N+](=O)[O-])cc1Cl)c1cc(Cl)ccc1OS(=O)(=O)C(F)(F)F [C8] | 59.2% | equivalent or improved anti-proliferation potency; also recorded: slightly improved | 0.252 ± 0.092 µM | 0.252 µM | 0.196 ± 0.064 µM | – | – | – | – | – | – |
| O=C(Nc1ccc([N+](=O)[O-])cc1F)c1cc(Cl)ccc1O [A10] | 56% | – | 0.271 ± 0.125 µM | 0.271 µM | 0.373 ± 0.069 µM | – | – | – | – | – | – |
| O=C(Nc1ccc([N+](=O)[O-])c(F)c1)c1ccc(Cl)cc1O [A5] | 44.2% | – | 0.924 ± 0.414 µM | 0.925 µM | 0.937 ± 0.351 µM | – | – | – | – | – | – |
| O=C(Nc1ccc([N+](=O)[O-])c(Cl)c1)c1cc(Cl)ccc1O [A14] | – | – | – | – | – | 0.386 ± 0.171 µM | 51.3% | 0.386 µM | 1.67 ± 0.25 µM | – | – |
| COc1cc([N+](=O)[O-])ccc1NC(=O)c1cc(Br)ccc1O [A20] | 60.2% | equivalent or improved anti-proliferation potency | 0.242 ± 0.044 µM | 0.242 µM | 0.304 ± 0.053 µM | – | – | – | – | – | – |
| N#Cc1cc(NC(=O)c2cc(F)ccc2O)ccc1C(F)(F)F [B8] | 60.4% | – | 0.24 ± 0.048 µM | 0.24 µM | 0.396 ± 0.065 µM | – | – | – | – | – | – |
| COc1cc(NC(=O)c2ccc(Cl)cc2O)ccc1[N+](=O)[O-] [A8] | 35.9% | – | 2.11 ± 0.52 µM | 2.11 µM | 0.615 ± 0.138 µM | – | – | – | – | – | – |
| CC(=O)Oc1ccc(Cl)cc1C(=O)Nc1ccc([N+](=O)[O-])cc1Cl [C7] | 42.9% | comparable activity | 0.481 ± 0.113 µM | 0.481 µM | 0.386 ± 0.098 µM | – | – | – | – | – | – |
| O=C(Nc1ccc([N+](=O)[O-])c(C(F)(F)F)c1)c1cc(Cl)ccc1O [A16] | 47.5% | – | 0.556 ± 0.112 µM | 0.556 µM | 0.693 ± 0.314 µM | – | – | – | – | – | – |
| O=C(Nc1ccc([N+](=O)[O-])cc1Cl)c1cccc(Cl)c1 [C2] | 19% | significant loss of activity | – | – | – | – | – | – | – | – | – |
| O=C(Nc1ccc(C(F)(F)F)c(C(F)(F)F)c1)c1cc(C(F)(F)F)ccc1O [B16] | 64.6% | equivalent or improved anti-proliferation potency | 0.111 ± 0.023 µM | 0.111 µM | 0.113 ± 0.044 µM | – | – | – | – | ~0.1 µM | ~0.1 µM |
| CNC(=O)c1ccc(N2C(=S)N(c3ccc(C#N)c(C(F)(F)F)c3)C(=O)C2(C)C)cc1F [Enzalutamide, reference compound] | 24.1% | – | – | – | – | – | – | – | – | – | – |

| Structure (SMILES) | inhibition at 1 µM [1, 3] | antiproliferative activity, in words [1] | IC50 [1, 4] | IC50 [1, 5] | IC50 [2, 6] | IC50 ([1]; 22Rv1, 72 h, read-out: IC50 (μM) 22RV1) | inhibition at 1 µM ([1]; 22Rv1, read-out: Inhibitory Rate 22RV1 @1.0 μM) | IC50 ([1]; 22Rv1, read-out: Obs pIC50 (converted)) | IC50 ([2]; LNCaP-95, 72 h, read-out: IC50 (μM) LNCaP95) | IC50 ([1]; 22Rv1, antiproliferation, approximate value, read-out: IC50 in 22RV1 (text)) | IC50 ([2]; LNCaP-95, antiproliferation, approximate value, read-out: IC50 in LNCaP95 (text)) |
| --- | --- | --- | --- | --- | --- | --- | --- | --- | --- | --- | --- |
| N#Cc1ccc(O)c(C(=O)Nc2ccc(C(F)(F)F)c(C(F)(F)F)c2)c1 [B15] | 44.8% | – | 1.04 ± 0.26 µM | 1.04 µM | 2.35 ± 0.53 µM | – | – | – | – | – | – |
| COc1cc([N+](=O)[O-])ccc1NC(=O)c1cc(Cl)ccc1O [A13] | 57.3% | – | 0.158 ± 0.044 µM | 0.158 µM | 0.444 ± 0.119 µM | – | – | – | – | – | – |
| O=C(Nc1ccc([N+](=O)[O-])c(Cl)c1)c1ccc(Cl)cc1O [A4] | 47.5% | – | 0.713 ± 0.178 µM | 0.713 µM | 3.43 ± 0.49 µM | – | – | – | – | – | – |
| O=C(Nc1ccc(C(F)(F)F)cc1Cl)c1cc(F)ccc1O [B5] | 59.2% | – | 0.375 ± 0.063 µM | 0.375 µM | 0.384 ± 0.088 µM | – | – | – | – | – | – |
| O=C(Nc1ccc([N+](=O)[O-])c(F)c1)c1cc(Cl)ccc1O [A15] | 55.4% | – | 0.28 ± 0.092 µM | 0.28 µM | 0.755 ± 0.221 µM | – | – | – | – | – | – |
| Cc1cc([N+](=O)[O-])ccc1NC(=O)c1cc(Cl)ccc1O [A12] | 58% | – | 0.248 ± 0.063 µM | 0.248 µM | 0.493 ± 0.105 µM | – | – | – | – | – | – |
| O=C(Nc1ccnc(C(F)(F)F)c1)c1cc(F)ccc1O [B11] | 47.7% | – | 0.581 ± 0.205 µM | 0.581 µM | 0.392 ± 0.136 µM | – | – | – | – | – | – |
| COc1cc([N+](=O)[O-])ccc1NC(=O)c1ccc(Cl)cc1O [A3] | 50% | – | 0.714 ± 0.303 µM | 0.714 µM | 2.48 ± 0.702 µM | – | – | – | – | – | – |
| O=C(Nc1ccc(C(F)(F)F)nc1)c1cc(F)ccc1O [B10] | 42.3% | – | 0.547 ± 0.153 µM | 0.547 µM | 0.627 ± 0.225 µM | – | – | – | – | – | – |
| O=C(Nc1ccc([N+](=O)[O-])cc1Cl)c1cccc(Br)c1 [C4] | 31.2% | significant loss of activity | – | – | – | – | – | – | – | – | – |
| N#Cc1ccc(NC(=O)c2cc(F)ccc2O)c(F)c1 [B13] | 65.6% | – | 0.184 ± 0.061 µM | 0.184 µM | 0.231 ± 0.072 µM | – | – | – | – | – | – |
| O=C(Nc1ccc(C(F)(F)F)c(C(F)(F)F)c1)c1cc(Br)ccc1O [B4] | 53.1% | – | 0.307 ± 0.059 µM | 0.307 µM | 0.213 ± 0.042 µM | – | – | – | – | – | – |
| O=C(Nc1ccc([N+](=O)[O-])cc1)c1cc(Cl)ccc1O [A9] | 44.9% | – | 0.581 ± 0.289 µM | 0.581 µM | 0.812 ± 0.374 µM | – | – | – | – | – | – |
| Cc1cc(NC(=O)c2ccc(Cl)cc2O)ccc1[N+](=O)[O-] [A7] | 42.5% | – | 0.976 ± 0.205 µM | 0.975 µM | 0.789 ± 0.436 µM | – | – | – | – | – | – |
| Cc1cc(NC(=O)c2cc(Cl)ccc2O)ccc1[N+](=O)[O-] [A17] | 50.1% | – | 0.324 ± 0.058 µM | 0.324 µM | 0.867 ± 0.298 µM | – | – | – | – | – | – |
| O=C(Nc1ccc(C(F)(F)F)cc1F)c1cc(F)ccc1O [B6] | 62.5% | equivalent or improved anti-proliferation potency | 0.196 ± 0.032 µM | 0.196 µM | 0.185 ± 0.041 µM | – | – | – | – | – | – |
| O=C(Nc1ccc([N+](=O)[O-])cc1F)c1ccc(Cl)cc1O [A1] | 54.3% | – | 0.467 ± 0.131 µM | 0.467 µM | 1.19 ± 0.53 µM | – | – | – | – | – | – |
| O=C(Nc1ccc([N+](=O)[O-])cc1Cl)c1cc(Br)ccc1O [A19] | 13.4% | dramatic loss of activity | – | – | – | – | – | – | – | – | – |
| COc1cc(NC(=O)c2cc(Cl)ccc2O)ccc1[N+](=O)[O-] [A18] | 55.4% | – | 0.483 ± 0.145 µM | 0.483 µM | 2.11 ± 0.46 µM | – | – | – | – | – | – |
| O=C(Nc1ccc([N+](=O)[O-])c(C(F)(F)F)c1)c1cccc(Br)c1 [C5] | 58.3% | retained | 0.306 ± 0.058 µM | 0.306 µM | 0.536 ± 0.201 µM | – | – | – | – | – | – |
